How the values were obtained:
[1] = tested on: TXB2 Released by Human Platelets; assay: Ionophore and arachidonic acid induced TXB2 released by human platelets (EIA); type: cell-based; conditions: human platelet-rich plasma, challenge with calcium ionophore (10 μM) or arachidonic acid (50 μM)
Method: Ionophore and Arachidonic Acid Induced TXB2 Released by Human Platelets
The plate was incubated for 15 minutes at 37° C. Following incubation, platelets were challenged with calcium ionophore (final 10 μM) or arachidonic acid (AA) (final 50 μM) and the plate was further incubated at 37° C. for 15 min. The plate was transferred to an ice bed for 5 min in order to stop the reaction. Supernatants were assayed for TXB2 production by EIA (Assay Design Inc) after diluting with assay buffer (Assay Design Inc).

[2] = tested on: Neutrophil LTB4; assay: Neutrophil LTB4 assay (calcium ionophore challenge, EIA); type: cell-based; conditions: human neutrophils, calcium ionophore 1 μM
[3] = tested on: Neutrophil LTB4; assay: as above; type: cell-based; conditions: Neutrophil; test concentration of 5 μM; human neutrophils, calcium ionophore 1 μM; read-out: LTB4 percent inhibition
Method: Neutrophils purified from human blood were resuspended in HBSS buffer containing calcium and magnesium to a cell density of 1×10^6/mL. Purified neutrophils were then incubated with test compounds at a test concentration of 5 μM for 15 min at 37° C. Following incubation, the cells were challenged with calcium ionophore (1 μM final) for 15 minutes at 37° C. Negative control wells were incubated with equal volume of vehicle. The reaction was stopped by transferring the plate to ice for 5 minutes. The plate was centrifuged at 1500 RPM for 5 min at 4° C. LTB4 was calculated in cell free supernatants by EIA (Assay Design Inc).

[4] = tested on: PMA Induced Acute Ear Edema; assay: PMA induced acute ear edema (mouse); type: in vivo; conditions: ear punch weight 6 h after PMA; for % Inh (percent inhibition of edema): test compound applied topically at about 1% to about 10%, 10 min before PMA
Method: PMA Induced Acute Ear Edema
PMA was prepared […] in an acetone:water mixture (99:1). 10 μL of 200 ng/10 μL was applied to the left ears of the mice. Control mice received 10 μL of vehicle. Test compounds were dissolved in the vehicle and applied at a test concentration of from about 1% to about 10% (depending on solubility) at 10 min before PMA application. β-methasone (1%) was used as a control. Six hours after the PMA application, mice were sacrificed and 6 mm ear punch biopsies were removed and weighed to assess edema.

## Cc1nc(-c2ccc(Cn3sccc3=O)cc2)cs1 [Cpd 26, 2-[4-(2-methyl-thiazol-4-yl)-benzyl]-isothiazol-3-one]
[1]
  IC50: 400 nM
other
  melting point: 150.5 to 152 °C
[2]
  IC50: 1700 nM

## Cc1nc(-c2cccc(Cn3sccc3=O)c2)cs1 [Cpd 48, 2-[3-(2-methyl-thiazol-4-yl)benzyl]-isothiazol-3-one]
[1]
  IC50: 1500 nM
[2]
  IC50: 1500 nM

## O=c1cc(Cl)sn1Cc1ccc2c(c1)CCO2 [Cpd 16, 5-chloro-2-(2,3-dihydro-benzofuran-5-ylmethyl)-isothiazol-3-one]
[3]
  inhibition at 5 µM: 97%
[1]
  IC50: 250 nM
other
  melting point: 100 to 102 °C

## O=c1ccsn1Cc1cc2ccccc2s1 [Cpd 9, 2-benzo[b]thiophen-2-ylmethyl-isothiazol-3-one]
[4]
  % Inh (percent inhibition of edema): 72%
[3]
  inhibition at 5 µM: 84%
[1]
  IC50: 1800 nM
other
  melting point: 144 to 146 °C

## C[C@H]1C[C@H]2[C@@H]3CCC4=CC(=O)C=C[C@]4(C)[C@@]3(F)[C@@H](O)C[C@]2(C)[C@@]1(O)C(=O)CO [β-methasone, reference compound]
[4]; β-methasone (1%) used as control
  β-methasone control, percent inhibition of edema: 100%

## O=c1cc(Cl)sn1Cc1sc2ccccc2c1Cl [Cpd 6, 5-chloro-2-(3-chloro-benzo[b]thiophen-2-ylmethyl)-isothiazol-3-one]
[3]
  inhibition at 5 µM: 70%
[1]
  IC50: 710 nM
other
  melting point: 118 to 120 °C

## O=C(c1ccccc1)c1ccc(Cn2sccc2=O)cc1 [Cpd 51, 2-(4-benzoylbenzyl)-isothiazol-3-one]
[4]
  % Inh (percent inhibition of edema): 84%
[3]
  inhibition at 5 µM: 90%
[1]
  IC50: 1200 nM

## O=c1ccsn1Cc1ccc(-n2cc(Cl)cn2)cc1 [Cpd 57, 2-[4-(4-chloro-pyrazol-1-yl)-benzyl]-isothiazol-3-one]
[4]
  % Inh (percent inhibition of edema): 100%
[3]
  inhibition at 5 µM: 100%
[1]
  IC50: 3000 nM

## O=c1ccsn1Cc1cccc2ccccc12 [Cpd 2, 2-naphthalen-1-ylmethyl-isothiazol-3-one]
[3]
  inhibition at 5 µM: 81%
[1]
  IC50: 3000 nM
other
  melting point: 121 to 125 °C

## O=c1cc(Cl)sn1Cc1cc2ccccc2s1 [Cpd 7, 2-benzo[b]thiophen-2-ylmethyl-5-chloro-isothiazol-3-one]
[3]
  inhibition at 5 µM: 95%
[1]
  IC50: 460 nM
other
  melting point: 101 to 103 °C

## O=c1ccsn1Cc1cccc(-c2ccco2)c1 [Cpd 49, 2-(3-furan-2-yl-benzyl)-isothiazol-3-one]
[3]
  inhibition at 5 µM: 100%
[1]
  IC50: 1200 nM
other
  melting point: 78 to 80 °C

Reference: patent US20060293374A1, “Substituted isothiazolones” (priority 2005, published 2006)
